{
  "source": "paper PMC7827417",
  "about": "“Steroid Glycosides Hyrcanoside and Deglucohyrcanoside: On Isolation, Structural Identification, and Anticancer Activity” (Foods, 2021)",
  "key": {"[1]": {"system": "CCRF-CEM", "test": "MTS cytotoxic assay, CCRF-CEM", "type": "cell-based", "conditions": "Homo sapiens, 72 h", "excerpt": "(§1) If not indicated otherwise, the cell lines were purchased from the American Type Culture Collection (ATCC). […] K562 is the erythroid-myeloid precursor cell line derived from chronic myeloid leukemia carrying the BCR-ABL hybrid gene. A549, MCF-7, PC-3, 5637, U-2 OS, and MiaPaCa-2 are cells derived from lung, breast, prostate, bladder carcinoma, osteosarcoma, and pancreatic adenocarcinoma, respectively. HEK 293T are transformed human embryonic kidney cells, and L929 (Sigma, St. Louis, MS, USA) are transformed mouse fibroblasts. HCT116, cells from colorectal carcinoma, and their p53 gene knock-out variant (HCT116p53-/-) were purchased from Horizon Discovery. This cell line is a model of human tumors bearing p53 loss-of-function mutations or biallelic deletion of the p53 gene, frequently associated with poor prognosis. The MRC-5 and BJ cells were used as noncancerous cells; more specifically, they are human fibroblasts from the lungs and foreskin, respectively. According to the supplier’s recommendations, all cells were cultured at 37 °C in a 5% CO2 atmosphere and 100% humidity. The culture media used were: DMEM, RPMI 1640, and MEM (according to a cell line); all were supplemented with 5 g L^−1 glucose, 10% fetal calf serum, 2 mM glutamine, 100 U mL^−1 penicillin, 100 µg mL^−1 streptomycin, and NaHCO3. Cells were passaged every two or three days using 0.25% trypsin plus 0.01% EDTA (ethylenediamine tetraacetic acid) in phosphate-buffered saline.\n(§2) To evaluate compound cytotoxicity, cells were seeded in 384-well microtiter plates in a volume of […]. The next day, aliquots of the tested derivatives were transferred with Echo550 acoustic liquid handler (Labcyte) to obtain dose response curves with dilution factor 4. The experiments were performed in technical duplicates and three or more biological replicates. After 72 h of incubation in a humidified incubator, […] of the MTS/PMS stock solution were pipetted into each well. After another 1–4 h of incubation, the absorbance at 490 nm was measured using an EnVision Multilabel Plate Reader (PerkinElmer)."}, "[2]": {"system": "5637", "test": "MTS cytotoxic assay, 5637", "type": "cell-based", "conditions": "Homo sapiens, 72 h", "excerpt": "as §1, §2"}, "[3]": {"system": "A549", "test": "MTS cytotoxic assay, A549", "type": "cell-based", "conditions": "Homo sapiens, A549, 72 h", "excerpt": "as §1, §2"}, "[4]": {"system": "L929", "test": "MTS cytotoxic assay, L929", "type": "cell-based, mouse", "conditions": "Mus musculus, L929, 72 h", "excerpt": "as §1, §2"}, "[5]": {"system": "CCRF-CEM cells", "test": "BrDU incorporation analysis (DNA synthesis)", "type": "cell-based, human", "conditions": "% of positive cells", "protocol": "The cells were cultured in the same way as the cell cycle analysis method. Just before harvesting, 5-bromo-2′-deoxyuridine (BrDU) of 10 µM concentration was added to the cells for pulse-labeling for 30 min. Then, the cells were fixed with −20 °C cold 70% ethanol and stored in a freezer for 16 h. Before antibody staining, the samples were incubated on ice for 30 min, washed once with phosphate-buffered saline (PBS), and re-suspended in 2 M of HCl for 30 min at room temperature to hydrolyze their DNA. After neutralization with 0.1 M of Na2B4O7 (borax) solution, the cells were washed with PBS containing 0.5% Tween-20 and 1% BSA. This was followed by staining with the primary anti-BrDU antibody (Exbio) for 30 min at room temperature. Then, the cells were washed with PBS and stained with a secondary anti-mouse antibody conjugated to fluorescein isothiocyanate (Merck-Sigma, St. Louis, MS, USA) at room temperature in the dark. After another washing with PBS and incubation with propidium iodide (0.1 mg·mL^−1) and RNAse A (0.5 mg·mL^−1) for 1 h at room temperature in the dark, the cells were analyzed by flow cytometry using a 488 nm laser (FACSCalibur, Becton Dickinson, Franklin Lakes, NJ, USA)."}, "[6]": {"system": "MRC-5", "test": "MTS cytotoxic assay, MRC-5", "type": "cell-based", "conditions": "Homo sapiens, MRC5, 72 h", "excerpt": "as §1, §2"}, "[7]": {"system": "MiaPaCa-2", "test": "MTS cytotoxic assay, MiaPaCa-2", "type": "cell-based", "conditions": "Homo sapiens, MIA PaCa-2, 72 h", "excerpt": "as §1, §2"}, "[8]": {"system": "CCRF-CEM cells", "test": "BrU incorporation analysis (RNA synthesis)", "type": "cell-based, human", "conditions": "% of positive cells", "protocol": "The cells were cultured and processed as described above. Before harvesting, the cells were pulse-labeled with 1 mM of 5-bromouridine (BrU) for 30 min. The cells were then fixed in 1% buffered paraformaldehyde with 0.05% NP-40 at room temperature for 15 min, and then stored at 4 °C overnight. Before measurement, they were washed with 1% glycine in PBS, washed again with PBS, and stained with primary anti-BrdU antibody cross-reactive to BrU (Exbio) for 30 min at room temperature in the dark. From this point on, the experiment was performed exactly as in the method described above."}, "[9]": {"system": "U-2 OS", "test": "MTS cytotoxic assay, U-2 OS", "type": "cell-based", "conditions": "Homo sapiens, U2OS, 72 h", "excerpt": "as §1, §2"}, "[10]": {"system": "CCRF-CEM cells", "test": "Cell cycle arrest and cell death analysis by flow cytometry (propidium iodide, pH3Ser10)", "type": "cell-based, human", "conditions": "% of positive cells", "protocol": "Together with the CG-treated cells, a vehicle-treated sample was harvested at the same time point. After 24 h, the cells were washed with cold phosphate-buffered saline, fixed dropwise in 70% ethanol, and stored overnight at −20 °C. The cells were then washed with hypotonic citrate buffer, treated with RNAse (50 µg mL^−1), and stained with propidium iodide. Flow cytometry using a 488 nm laser (FACS-Calibur, Becton Dickinson, NJ, USA) was used for measurement. The cell cycle was analyzed by the ModFitLT program (Verity), and apoptosis was measured in a logarithmic model expressing the percentage of particles with a lower propidium content than cells in the G0/G1 phase (<G1) of the cell cycle in the CellQuest program (Becton Dickinson). Half of the sample was used to label cells with pH3^Ser10-FITC antibody (Exbio) for subsequent flow cytometry analysis of mitotic cells."}, "[11]": {"system": "HEK 293T", "test": "MTS cytotoxic assay, HEK 293T", "type": "cell-based", "conditions": "Homo sapiens, HEK-293T, 72 h", "excerpt": "as §1, §2"}, "[12]": {"system": "K562", "test": "MTS cytotoxic assay, K562", "type": "cell-based", "conditions": "Homo sapiens, K562, 72 h", "excerpt": "as §1, §2"}, "[13]": {"system": "HCT116p53-/-", "test": "MTS cytotoxic assay, HCT116p53-/-", "type": "cell-based", "conditions": "Homo sapiens, 72 h", "excerpt": "as §1, §2"}, "[14]": {"system": "BJ", "test": "MTS cytotoxic assay, BJ", "type": "cell-based", "conditions": "Homo sapiens, BJ, 72 h", "excerpt": "as §1, §2"}, "[15]": {"system": "PC-3", "test": "MTS cytotoxic assay, PC-3", "type": "cell-based", "conditions": "Homo sapiens, PC-3, 72 h", "excerpt": "as §1, §2"}, "[16]": {"system": "MCF-7", "test": "MTS cytotoxic assay, MCF-7", "type": "cell-based", "conditions": "Homo sapiens, MCF7, 72 h", "excerpt": "as §1, §2"}},
  "data": [
    {"smiles": "C[C@]12CC[C@H]3[C@@H](CCC4=C[C@@H](O[C@@H]5OC[C@@H](O[C@@H]6O[C@H](CO)[C@@H](O)[C@H](O)[C@H]6O)[C@H](O)[C@H]5O)CC[C@@]43C=O)[C@@]1(O)CC[C@@H]2C1=CC(=O)OC1", "note": "[Hyr, (3β)-3-[(4-O-β-D-glucopyranosyl-β-D-xylopyranosyl)oxy]-14-hydroxy-19-oxocarda-4,20(22)-dienolide]", "values": [
      {"measurement": "IC50", "setting": "[1]", "value": "0.66 ± 0.038", "unit": "µM"},
      {"measurement": "IC50", "setting": "[2]", "value": "1.51 ± 0.051", "unit": "µM"},
      {"measurement": "IC50", "setting": "[3]", "value": "0.55 ± 0.038", "unit": "µM"},
      {"measurement": "IC50", "setting": "[4]", "value": "> 10", "unit": "µM"},
      {"measurement": "BrDU", "setting": "[5]; 1 × IC50, 24 h", "value": 30.58, "unit": "%"},
      {"measurement": "BrDU", "setting": "[5]; 5 × IC50, 24 h", "value": 23.58, "unit": "%"},
      {"measurement": "IC50", "setting": "[6]", "value": "0.302 ± 0.043", "unit": "µM"},
      {"measurement": "IC50", "setting": "[7]", "value": "0.491 ± 0.023", "unit": "µM"},
      {"measurement": "BrU", "setting": "[8]; 1 × IC50, 24 h", "value": 28.80, "unit": "%"},
      {"measurement": "BrU", "setting": "[8]; 5 × IC50, 24 h", "value": 3.82, "unit": "%"},
      {"measurement": "IC50", "setting": "[9]", "value": "1.1 ± 0.059", "unit": "µM"},
      {"measurement": "< G1 (apoptotic cells)", "setting": "[10]; 1 × IC50, 24 h", "value": 2.82, "unit": "%"},
      {"measurement": "G0/G1", "setting": "[10]; 1 × IC50, 24 h", "value": 38.48, "unit": "%"},
      {"measurement": "G2/M", "setting": "[10]; 1 × IC50, 24 h", "value": 26.30, "unit": "%"},
      {"measurement": "M (Phospho-Histone3 (Ser10))", "setting": "[10]; 1 × IC50, 24 h", "value": 1.41, "unit": "%"},
      {"measurement": "S", "setting": "[10]; 1 × IC50, 24 h", "value": 35.22, "unit": "%"},
      {"measurement": "< G1 (apoptotic cells)", "setting": "[10]; 5 × IC50, 24 h", "value": 5.82, "unit": "%"},
      {"measurement": "G0/G1", "setting": "[10]; 5 × IC50, 24 h", "value": 42.13, "unit": "%"},
      {"measurement": "G2/M", "setting": "[10]; 5 × IC50, 24 h", "value": 34.86, "unit": "%"},
      {"measurement": "M (Phospho-Histone3 (Ser10))", "setting": "[10]; 5 × IC50, 24 h", "value": 0.95, "unit": "%"},
      {"measurement": "S", "setting": "[10]; 5 × IC50, 24 h", "value": 23.01, "unit": "%"},
      {"measurement": "IC50", "setting": "[11]", "value": "0.383 ± 0.0089", "unit": "µM"},
      {"measurement": "IC50", "setting": "[12]", "value": "0.8 ± 0.052", "unit": "µM"},
      {"measurement": "IC50", "setting": "[13]", "value": "0.73 ± 0.098", "unit": "µM"},
      {"measurement": "IC50", "setting": "[14]", "value": "1.45 ± 0.25", "unit": "µM"},
      {"measurement": "IC50", "setting": "[15]", "value": "0.756 ± 0.029", "unit": "µM"},
      {"measurement": "IC50", "setting": "[16]", "value": "0.566 ± 0.029", "unit": "µM"}
    ]}
  ]
}
